# Active and inactive are the calls of the source. The calls are words filed in the database; no cut-off is given here.
# What was measured:
# [1] = test system: Staphylococcus aureus; test: Antibacterial activity against Staphylococcus aureus ATCC 29213 assessed as inhibition of bacterial growth by micro-broth dilution assay; type: functional
# [2] = test system: Pseudomonas aeruginosa; test: Antibacterial activity against Pseudomonas aeruginosa assessed as inhibition of bacterial growth by micro-broth dilution assay; type: functional
# [3] = test system: Acinetobacter baumannii; test: Antibacterial activity against Acinetobacter baumannii assessed as inhibition of bacterial growth by micro-broth dilution assay; type: functional
# [4] = test system: Staphylococcus aureus; test: Antibacterial activity against Staphylococcus aureus assessed as inhibition of bacterial growth by micro-broth dilution assay; type: functional
# [5] = test system: Enterococcus faecalis; test: Antibacterial activity against Enterococcus faecalis assessed as inhibition of bacterial growth by micro-broth dilution assay; type: functional
# [6] = test system: Klebsiella pneumoniae; test: Antibacterial activity against Klebsiella pneumoniae assessed as inhibition of bacterial growth by micro-broth dilution assay; type: functional
# [7] = test system: Staphylococcus aureus; test: Antibacterial activity against Staphylococcus aureus ATCC 25923 assessed as inhibition of bacterial growth by micro-broth dilution assay; type: functional
# [8] = test system: Escherichia coli; test: Antibacterial activity against Escherichia coli ATCC 25922 assessed as inhibition of bacterial growth by micro-broth dilution assay; type: functional
# [9] = Hemolytic activity in RBC (unknown origin) assessed as hemolysis; type: toxicity, cell-based, Erythrocyte; settings: red blood cells (erythrocytes)
# [10] = test system: Staphylococcus aureus; test: Antibacterial activity against methicillin resistant Staphylococcus aureus assessed as inhibition of bacterial growth by micro-broth dilution assay; type: functional
# [11] = test system: Pseudomonas aeruginosa; test: Antibacterial activity against Pseudomonas aeruginosa ATCC 27853 assessed as inhibition of bacterial growth by micro-broth dilution assay; type: functional
# [12] = test system: Escherichia coli; test: Antibacterial activity against Escherichia coli assessed as inhibition of bacterial growth by micro-broth dilution assay; type: functional
# [13] = test system: Pseudomonas aeruginosa; test: Antibacterial activity against Pseudomonas aeruginosa ATCC 27853 assessed as inhibition of bacterial growth at 4 times MIC measured upto 14 hrs; type: functional, organism-based
# [14] = test system: Pseudomonas aeruginosa; test: Antibacterial activity against Pseudomonas aeruginosa ATCC 27853 assessed as inhibition of bacterial growth measured after 6 hrs; type: functional, organism-based
# [15] = test system: Acinetobacter baumannii; test: Potency index, ratio of norfloxacin MIC to test compound MIC for antibacterial activity against Acinetobacter baumannii assessed as inhibition of bacterial growth by micro-broth dilution assay; type: functional
Structure (SMILES),MIC [1],MIC [2],MIC [3],MIC [4],MIC [5],MIC [6],MIC [7],MIC [8],HC50 [9],MIC [10],MIC [11],MIC [12],Activity [13],Activity [14],Ratio [15]
Cn1nnnc1SCC(O)CN1C(=O)/C(=N\Nc2ccc(C(=O)O)cc2)c2ccccc21 (stereo not given),16 µg/mL,128 µg/mL,32 µg/mL,16 µg/mL,8 µg/mL,32 µg/mL,16 µg/mL,16 µg/mL,292 µg/mL,4 µg/mL,32 µg/mL,32 µg/mL,–,–,–
CCn1cc(C(=O)O)c(=O)c2cc(F)c(N3CCNCC3)cc21 [NORFLOXACIN],2 µg/mL,8 µg/mL,4 µg/mL,2 µg/mL,4 µg/mL,2 µg/mL,4 µg/mL,2 µg/mL,–,8 µg/mL,4 µg/mL,8 µg/mL,Active,Active,–
Cc1ccc(N/N=C2\C(=O)N(CC(O)CSc3nnnn3C)c3ccccc32)cc1 (stereo not given),16 µg/mL,2 µg/mL,2 µg/mL,2 µg/mL,8 µg/mL,16 µg/mL,4 µg/mL,64 µg/mL,383 µg/mL,8 µg/mL,4 µg/mL,32 µg/mL,–,–,2
Cc1ccc(N/N=C2\C(=O)N(CC(O)CSc3nc[nH]n3)c3ccccc32)cc1 (stereo not given),8 µg/mL,64 µg/mL,16 µg/mL,32 µg/mL,2 µg/mL,32 µg/mL,4 µg/mL,32 µg/mL,416 µg/mL,16 µg/mL,8 µg/mL,32 µg/mL,–,–,–
Cn1nnnc1SCC(O)CN1C(=O)/C(=N\Nc2ccc(Cl)cc2)c2ccccc21 (stereo not given),256 µg/mL,16 µg/mL,1 µg/mL,32 µg/mL,64 µg/mL,2 µg/mL,32 µg/mL,4 µg/mL,> 512 µg/mL,16 µg/mL,32 µg/mL,16 µg/mL,–,–,2
Cn1ccnc1SCC(O)CN1C(=O)/C(=N\Nc2ccccc2)c2ccccc21 (stereo not given),128 µg/mL,256 µg/mL,128 µg/mL,128 µg/mL,128 µg/mL,128 µg/mL,256 µg/mL,128 µg/mL,441 µg/mL,128 µg/mL,128 µg/mL,128 µg/mL,–,–,–
Cn1ccnc1SCC(O)CN1C(=O)C(=O)c2ccccc21 (stereo not given),64 µg/mL,64 µg/mL,64 µg/mL,64 µg/mL,128 µg/mL,64 µg/mL,32 µg/mL,64 µg/mL,> 512 µg/mL,128 µg/mL,64 µg/mL,128 µg/mL,–,–,–
Cc1ccc(N/N=C2\C(=O)N(CC(O)CSc3nccn3C)c3ccccc32)cc1 (stereo not given),256 µg/mL,128 µg/mL,128 µg/mL,128 µg/mL,128 µg/mL,128 µg/mL,128 µg/mL,128 µg/mL,358 µg/mL,256 µg/mL,256 µg/mL,64 µg/mL,–,–,–
O=C1/C(=N\Nc2ccc([N+](=O)[O-])cc2)c2ccccc2N1CC(O)CSc1nc[nH]n1 (stereo not given),32 µg/mL,32 µg/mL,32 µg/mL,32 µg/mL,64 µg/mL,64 µg/mL,128 µg/mL,128 µg/mL,> 512 µg/mL,32 µg/mL,64 µg/mL,64 µg/mL,–,–,–
Cn1nnnc1SCC(O)CN1C(=O)/C(=N\Nc2ccccc2)c2ccccc21 (stereo not given),128 µg/mL,16 µg/mL,2 µg/mL,64 µg/mL,32 µg/mL,2 µg/mL,128 µg/mL,16 µg/mL,406 µg/mL,16 µg/mL,32 µg/mL,32 µg/mL,–,–,2
O=C1/C(=N\Nc2ccccc2)c2ccccc2N1CC(O)CSc1nc[nH]n1 (stereo not given),128 µg/mL,16 µg/mL,128 µg/mL,32 µg/mL,32 µg/mL,128 µg/mL,16 µg/mL,64 µg/mL,375 µg/mL,128 µg/mL,128 µg/mL,128 µg/mL,–,–,–
O=C1/C(=N\Nc2ccc(Cl)cc2)c2ccccc2N1CC(O)CSc1nc[nH]n1 (stereo not given),8 µg/mL,16 µg/mL,128 µg/mL,32 µg/mL,4 µg/mL,4 µg/mL,16 µg/mL,8 µg/mL,350 µg/mL,16 µg/mL,32 µg/mL,16 µg/mL,–,–,–
Cn1nnnc1SCC(O)CN1C(=O)/C(=N\Nc2ccc([N+](=O)[O-])cc2)c2ccccc21 (stereo not given),16 µg/mL,2 µg/mL,64 µg/mL,64 µg/mL,8 µg/mL,16 µg/mL,4 µg/mL,16 µg/mL,262 µg/mL,8 µg/mL,4 µg/mL,64 µg/mL,–,–,–
Cn1ccnc1SCC(O)CN1C(=O)/C(=N\Nc2ccc(Cl)cc2)c2ccccc21 (stereo not given),64 µg/mL,64 µg/mL,16 µg/mL,16 µg/mL,4 µg/mL,2 µg/mL,256 µg/mL,128 µg/mL,151 µg/mL,128 µg/mL,32 µg/mL,32 µg/mL,–,–,–
Cn1ccnc1SCC(O)CN1C(=O)/C(=N\Nc2ccc([N+](=O)[O-])cc2)c2ccccc21 (stereo not given),128 µg/mL,256 µg/mL,64 µg/mL,128 µg/mL,128 µg/mL,32 µg/mL,64 µg/mL,128 µg/mL,> 512 µg/mL,64 µg/mL,16 µg/mL,32 µg/mL,–,–,–
Cn1nnnc1SCC(O)CN1C(=O)C(=O)c2ccccc21 (stereo not given),64 µg/mL,64 µg/mL,64 µg/mL,32 µg/mL,64 µg/mL,16 µg/mL,128 µg/mL,16 µg/mL,335 µg/mL,64 µg/mL,32 µg/mL,64 µg/mL,–,–,–
O=C(O)c1ccc(N/N=C2\C(=O)N(CC(O)CSc3nc[nH]n3)c3ccccc32)cc1 (stereo not given),4 µg/mL,64 µg/mL,16 µg/mL,64 µg/mL,2 µg/mL,2 µg/mL,8 µg/mL,32 µg/mL,282 µg/mL,4 µg/mL,16 µg/mL,8 µg/mL,–,–,–
O=C1C(=O)N(CC(O)CSc2nc[nH]n2)c2ccccc21 (stereo not given),64 µg/mL,16 µg/mL,64 µg/mL,128 µg/mL,64 µg/mL,32 µg/mL,32 µg/mL,128 µg/mL,285 µg/mL,64 µg/mL,128 µg/mL,64 µg/mL,–,–,–

# From ChEMBL document CHEMBL5338704, “Discovery of novel phenylhydrazone-based oxindole-thiolazoles as potent antibacterial agents toward Pseudomonas aeruginosa” (Eur J Med Chem, 2022)
